Data set [1] in a line: in vivo. The settings on record: rat, whole blood.
Data set [2] is described as follows: in vivo. As to conditions: rat, brain/blood, 30 mg/kg.

This is an account of results in ChEMBL document CHEMBL1800009, “Pyrazolopyridazine alpha-2-delta-1 ligands for the treatment of neuropathic pain” (Bioorg Med Chem Lett, 2010).

On to `Cc1nnc(N2CCCC2)c2nn(-c3ccc(OCC(F)(F)F)cc3)c(C)c12`, for which the clearance in data set [1] worked out at 49 mL/min/kg. Take `COC1CN(c2nnc(C)c3c(C)n(-c4ccc(Cl)cc4OC(F)(F)F)nc23)C1`: the clearance in data set [1] turned out to be 52 mL/min/kg. Further, the Kp in data set [2] was 0.94.
